Data published in ChEMBL document CHEMBL6114965, “Novel dual-targeting PROTAC degraders of GSK-3β and CDK5: A promising approach for pancreatic cancer treatment” (Bioorg Med Chem, 2025).
Calls of active or inactive are those of the source. No cut-off for these calls is given here.

How the values were obtained:
[1] = tested on: PANC-1; test: Antiproliferative activity against human PANC-1 cells assessed as inhibition of cell viability by MTT assay; format: functional, cell-based
[2] = tested on: MIA PaCa-2; test: Antiproliferative activity against human MIA PaCa-2 cells assessed as inhibition of cell viability by MTT assay; format: functional, cell-based
[3] = tested on: BXPC-3; test: Antiproliferative activity against human BXPC-3 cells assessed as inhibition of cell viability by MTT assay; format: functional, cell-based
[4] = tested on: ASPC1; test: Antiproliferative activity against human ASPC1 cells assessed as inhibition of cell viability by MTT assay; format: functional, cell-based
[5] = target: T1, Protein cereblon/Glycogen synthase kinase-3 beta (Homo sapiens, UniProt P49841+Q96SW2); test: PROTAC activity at CRBN/GSK3beta in human PANC-1 cells assessed as induction of GSK3beta degradation at 0.5 to 2.8 uM incubated for 10 hrs in presence of MG132 by Western blot analysis; format: cell-based; conditions: dose 0.5-2.8 µM
Target sequence in this assay (P49841 whole entry, looked up): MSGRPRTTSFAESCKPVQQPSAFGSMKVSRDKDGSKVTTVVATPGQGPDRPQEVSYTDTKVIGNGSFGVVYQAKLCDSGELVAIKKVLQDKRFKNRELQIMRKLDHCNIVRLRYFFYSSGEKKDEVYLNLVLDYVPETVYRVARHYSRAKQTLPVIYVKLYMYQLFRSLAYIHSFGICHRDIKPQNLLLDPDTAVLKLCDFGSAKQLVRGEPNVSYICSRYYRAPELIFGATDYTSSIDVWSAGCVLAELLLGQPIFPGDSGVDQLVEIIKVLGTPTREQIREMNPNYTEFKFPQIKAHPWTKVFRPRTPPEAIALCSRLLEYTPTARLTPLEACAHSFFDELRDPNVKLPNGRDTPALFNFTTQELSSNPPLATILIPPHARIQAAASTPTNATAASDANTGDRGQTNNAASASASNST
Target sequence in this assay (Q96SW2 whole entry, looked up): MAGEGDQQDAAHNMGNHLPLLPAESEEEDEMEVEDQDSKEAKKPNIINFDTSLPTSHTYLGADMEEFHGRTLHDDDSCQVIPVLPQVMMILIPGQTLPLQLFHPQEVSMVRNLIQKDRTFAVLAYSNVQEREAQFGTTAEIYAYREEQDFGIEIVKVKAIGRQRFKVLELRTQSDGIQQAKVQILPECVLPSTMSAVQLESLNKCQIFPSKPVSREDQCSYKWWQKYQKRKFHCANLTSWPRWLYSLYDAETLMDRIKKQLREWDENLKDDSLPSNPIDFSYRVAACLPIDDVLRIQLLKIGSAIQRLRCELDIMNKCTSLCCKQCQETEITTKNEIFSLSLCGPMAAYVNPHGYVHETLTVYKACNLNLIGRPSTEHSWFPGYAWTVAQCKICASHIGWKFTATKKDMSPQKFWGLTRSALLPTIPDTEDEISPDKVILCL

[6] = target: T2, Protein cereblon/Cyclin-dependent kinase 5 (Homo sapiens, UniProt Q00535+Q96SW2); test: PROTAC activity at CRBN/CDK5 in human PANC-1 cells assessed as induction of CDK5 degradation at 0.5 to 2.8 uM incubated for 10 hrs in presence of MG132 by Western blot analysis; format: cell-based; conditions: dose 0.5-2.8 µM
Target sequence in this assay (Q00535 whole entry, looked up): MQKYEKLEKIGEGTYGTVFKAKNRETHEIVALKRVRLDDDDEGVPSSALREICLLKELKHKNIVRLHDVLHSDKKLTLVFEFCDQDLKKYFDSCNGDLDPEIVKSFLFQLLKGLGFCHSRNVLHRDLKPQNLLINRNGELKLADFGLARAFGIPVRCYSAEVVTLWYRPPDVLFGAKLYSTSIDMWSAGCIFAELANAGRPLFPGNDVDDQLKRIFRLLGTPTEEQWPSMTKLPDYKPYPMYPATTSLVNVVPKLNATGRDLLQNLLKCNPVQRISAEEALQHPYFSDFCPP
Target sequence in this assay (Q96SW2 whole entry, looked up): as the sequence (Q96SW2 whole entry, looked up) above

[7] = target: T1, Protein cereblon/Glycogen synthase kinase-3 beta; test: PROTAC activity at CRBN/GSK3beta in human PANC-1 cells assessed as induction of GSK3beta degradation by target engagement binding based cell-ELISA
Target sequence in this assay (P49841 whole entry): as the sequence (P49841 whole entry, looked up) above
Target sequence in this assay (Q96SW2 whole entry): as the sequence (Q96SW2 whole entry, looked up) above

[8] = target: T1, Protein cereblon/Glycogen synthase kinase-3 beta; test: PROTAC activity at CRBN/GSK3beta in human PANC-1 cells assessed as induction of GSK3beta degradation by measuring maximal efficacy by target engagement binding based cell-ELISA relative to control
Target sequence in this assay (P49841 whole entry, looked up): as the sequence (P49841 whole entry, looked up) above
Target sequence in this assay (Q96SW2 whole entry, looked up): as the sequence (Q96SW2 whole entry, looked up) above

[9] = target: T2, Protein cereblon/Cyclin-dependent kinase 5; test: PROTAC activity at CRBN/CDK5 in human PANC-1 cells assessed as induction of CDK5 degradation by target engagement binding based cell-ELISA
Target sequence in this assay (Q00535 whole entry): as the sequence (Q00535 whole entry, looked up) above
Target sequence in this assay (Q96SW2 whole entry): as the sequence (Q96SW2 whole entry, looked up) above

[10] = target: T2, Protein cereblon/Cyclin-dependent kinase 5; test: PROTAC activity at CRBN/CDK5 in human PANC-1 cells assessed as induction of CDK5 degradation by measuring maximal efficacy by target engagement binding based cell-ELISA relative to control
Target sequence in this assay (Q00535 whole entry, looked up): as the sequence (Q00535 whole entry, looked up) above
Target sequence in this assay (Q96SW2 whole entry, looked up): as the sequence (Q96SW2 whole entry, looked up) above

[11] = target: T1, Protein cereblon/Glycogen synthase kinase-3 beta; test: PROTAC activity at CRBN/GSK3beta in human PANC-1 cells assessed as induction of GSK3beta degradation at 1 to 2.8 uM incubated for 10 hrs by Western blot analysis; format: cell-based; conditions: dose 1-2.8 µM
Target sequence in this assay (P49841 whole entry, looked up): as the sequence (P49841 whole entry, looked up) above
Target sequence in this assay (Q96SW2 whole entry, looked up): as the sequence (Q96SW2 whole entry, looked up) above

[12] = target: T2, Protein cereblon/Cyclin-dependent kinase 5; test: PROTAC activity at CRBN/CDK5 in human PANC-1 cells assessed as induction of CDK5 degradation at 1 to 2.8 uM incubated for 10 hrs by Western blot analysis; format: cell-based; conditions: dose 1-2.8 µM
Target sequence in this assay (Q00535 whole entry, looked up): as the sequence (Q00535 whole entry, looked up) above
Target sequence in this assay (Q96SW2 whole entry, looked up): as the sequence (Q96SW2 whole entry, looked up) above

[13] = Permeability of compound in PBS at pH 7.4 at 500 uM incubated for 4 hrs by UV spectrophotometry based PAMPA; format: ADME; conditions: read-out: permeability
[14] = target: T3, Cytochrome P450 2B6 (Homo sapiens, UniProt P20813); test: Inhibition of CYP2B6 (unknown origin) using bupropion as substrate […]; format: ADME
T3 sequence (P20813 whole entry): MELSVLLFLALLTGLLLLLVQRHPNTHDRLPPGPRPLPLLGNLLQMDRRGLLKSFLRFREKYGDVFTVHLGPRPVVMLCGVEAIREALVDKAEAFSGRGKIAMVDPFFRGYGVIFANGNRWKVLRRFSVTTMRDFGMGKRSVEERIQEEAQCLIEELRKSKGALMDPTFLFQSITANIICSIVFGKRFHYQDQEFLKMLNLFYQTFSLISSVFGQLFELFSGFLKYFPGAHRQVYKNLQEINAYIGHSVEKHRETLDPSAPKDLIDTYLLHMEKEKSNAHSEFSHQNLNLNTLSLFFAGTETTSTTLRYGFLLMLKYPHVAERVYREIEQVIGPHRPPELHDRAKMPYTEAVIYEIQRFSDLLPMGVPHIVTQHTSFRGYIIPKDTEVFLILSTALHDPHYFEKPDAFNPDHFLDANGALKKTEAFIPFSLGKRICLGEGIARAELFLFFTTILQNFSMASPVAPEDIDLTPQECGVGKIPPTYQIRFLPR

[15] = Metabolic stability in pooled human liver microsomes assessed as half-life at 100 uM measured upto 120 mins by LC-MS/MS analysis; format: ADME, Microsome
[16] = Cytotoxicity against human HepG2 cells; format: toxicity, cell-based
[17] = Cytotoxicity against human A549 cells; format: toxicity, cell-based
[18] = target: Protein cereblon/Cyclin-dependent kinase 2 (Homo sapiens, UniProt P24941+Q96SW2); test: PROTAC activity at CRBN/CDK2 (unknown origin) assessed as induction of CDK2 degradation; format: protein assay

SMILES	IC50 [1] [nM]	IC50 [2] [nM]	IC50 [3] [nM]	IC50 [4] [nM]	Activity [5]	Activity [6]	DC50 [7] [nM]	Emax [8] [%]	DC50 [9] [nM]	Emax [10] [%]	Activity [11]	Activity [12]	Papp at 4 h, 500 µM [13] [×10⁻⁶ cm/s]	IC50 [14] [nM]	half-life at 100 µM [15] [min]	CC50 [16] [nM]	CC50 [17] [nM]	DC50 [18] [nM]
O=C1CCC(N2C(=O)c3cccc(NCCOCCOCCOCCOCCOCn4cc(CN5CCN(CCCn6cc(C7=C(c8c[nH]c9ccccc89)C(=O)NC7=O)c7ccccc76)CC5)nn4)c3C2=O)C(=O)N1 (centres undefined)	5720	4670	4870	3350	inactive	inactive	220	75	330	78	–	–	–	–	–	–	–	–
O=C1Cc2c([nH]c3ccc(Br)cc23)-c2ccccc2N1 [KENPAULLONE]	8600	7200	9100	6500	–	–	–	–	–	–	–	–	–	–	–	–	–	–
O=C1CCC(N2C(=O)c3cccc(NCC(=O)N4CCC(C(=O)N5CCN(CCCn6cc(C7=C(c8c[nH]c9ccccc89)C(=O)NC7=O)c7ccccc76)CC5)CC4)c3C2=O)C(=O)N1 (centres undefined)	2810	3010	3540	3580	inactive	inactive	125	81	321	78	–	–	–	–	–	–	–	–
O=C1CCC(N2C(=O)c3ccc(N4CCN(CCOCCC(=O)N5CCC(NC(=O)c6c[nH]nc6NC(=O)c6c(Cl)cccc6Cl)CC5)CC4)cc3C2=O)C(=O)N1 (centres undefined)	1950	2190	2210	2250	inactive	inactive	98	89	32	90	Active	Active	38.6	–	–	–	–	–
CN(CCC(=O)N1CCC(NC(=O)c2c[nH]nc2NC(=O)c2c(Cl)cccc2Cl)CC1)C(=O)CNc1cccc2c1C(=O)N(C1CCC(=O)NC1=O)C2=O (centres undefined)	2340	3120	2890	2560	inactive	inactive	152	78	45	90	–	–	31.3	–	–	–	–	–
CN[C@H]1CC[C@@H](c2ccc(Cl)c(Cl)c2)c2ccccc21 [SERTRALINE]	–	–	–	–	–	–	–	–	–	–	–	–	–	12500	–	–	–	–
O=C1CCC(N2C(=O)c3ccc(N4CCN(CCOCCC(=O)N5CCN(CCCn6cc(C7=C(c8c[nH]c9ccccc89)C(=O)NC7=O)c7ccccc76)CC5)CC4)cc3C2=O)C(=O)N1 (centres undefined)	2500	2430	2870	3870	inactive	inactive	56	88	52	89	Active	Active	69.2	–	–	–	–	–
O=C1CCC(N2C(=O)c3cccc(NCCOCCOCCOCC(=O)N4CCC(NC(=O)c5c[nH]nc5NC(=O)c5c(Cl)cccc5Cl)CC4)c3C2=O)C(=O)N1 (centres undefined)	2750	3810	3140	3570	inactive	inactive	90	89	36	92	–	–	61.2	–	–	–	–	–
OC[C@@H](O)[C@@H](O)[C@H](O)[C@H](O)CO [MANNITOL]	–	–	–	–	–	–	–	–	–	–	–	–	4.08	–	–	–	–	–
CC(=O)c1c(C)c2cnc(Nc3ccc(N4CCNCC4)cn3)nc2n(C2CCCC2)c1=O [PALBOCICLIB]	–	–	–	–	–	–	–	–	–	–	–	–	–	–	57	8120	7950	–
Cc1cc(=O)n(-c2ccccc2)n1C [ANTIPYRINE]	–	–	–	–	–	–	–	–	–	–	–	–	15.2	–	–	–	–	–
O=C1CCC(N2C(=O)c3cccc(NCCOCCOCCOCC(=O)N4CCN(CCCn5cc(C6=C(c7c[nH]c8ccccc78)C(=O)NC6=O)c6ccccc65)CC4)c3C2=O)C(=O)N1 (centres undefined)	5150	6610	5980	5560	inactive	inactive	96	87	210	81	–	–	–	–	–	–	–	–
Cc1cscc1C(=O)n1nc(Nc2ccc(S(=O)(=O)NCCOCc3cn(CCOCCOCCNc4cccc5c4C(=O)N(C4CCC(=O)NC4=O)C5=O)nn3)cc2)nc1N (centres undefined)	–	–	–	–	–	–	–	–	–	–	–	–	–	–	–	–	–	61
